Experiments:
Assay type in all cases: cell-based, human
MSK-Leuk1 cells [1] = assay: Cell motility assay (scratch gap closure); settings: vector or CYP1B1 shRNA, E2 1 nM, 16 h post-scratch
Description: Cell motility assay. MSK-Leuk1 cells, expressing either vector or CYP1B1 shRNA, were cultured in phenol red-free and serum-free medium for 48 h and then plated at 70% confluence. After 24 h, the cells were treated with either vehicle or E2 (1 nM) in triplicate, as described above. When cells reached 100% confluence (48 h later), the surface of the cell culture dish was carefully scratched using a micropipette tip, thus making an evenly distributed gap in the cell monolayer. The medium was replaced, and five representative images of each gap were acquired at 0 h using a Nikon TE-2000U wide field inverted microscope (Optical Apparatus Co., Ardmore, Pa.) equipped with a Roper Scientific Cool Snap HQ camera. Another set of 5-10 representative images per gap was obtained following a 16-h incubation. The area devoid of cells was measured on every image using MetaMorph 7.0 (Molecular Devices, Inc., Sunnyvale, Calif.). The gap closure percentages were calculated as (area at 0 h−area at 16 h)/(area at 0 h).
In addition, a time-lapse movie capturing the process of gap closure in vector-expressing MSK-Leuk1 cells was obtained. The medium was replaced with fresh medium containing 25 mM HEPES buffer, and cells were allowed to incubate for 1 h at 37° C. […] The percentage of proliferating cells (those rounded up for cell division) was counted in this representative area.

HNSCC cells = assay: Quantitative real-time RT-PCR of transcript levels after E2 exposure, HNSCC cells; settings: E2 1 nM, 24 h
Description: Cell lines and treatments. MSK-Leuk1 cells were derived from a dysplastic leukoplakia lesion located adjacent to a SCC of the tongue. MSK-Leuk1 cells were cultured in KGM medium (Lonza, Walkersville, Md.). MSK-Leuk1 cells (passage 33) were determined to be identical to the early passage MSK-Leuk1 cells (Identity Mapping Kit, Coriell Institute for Medical Research, Camden, N.J.). All HNSCC cell lines were derived from patients with SCC of the tongue. SCC9 ([…]) and SCC15 ([…]) cells were cultured in S-MEM medium, supplemented with 2 mM L-glutamine, 100 units/ml penicillin, 100 μg/ml streptomycin and 10% FBS. […]
For all the experiments that involved estradiol (E2) exposure, MSK-Leuk1 cells were cultured in phenol red-free and serum-free DermaLife K Medium (Lifeline Cell Technology, Walkersville, Md.). […] Cells were harvested after the appropriate treatment period and analyzed.
Quantitative real-time reverse transcription PCR. RNA was extracted from pelleted cultured cells using the RNeasy Mini kit (Qiagen, Valencia, Calif.) and its quality (18S and 28S RNA) was evaluated by gel electrophoresis. cDNA was synthesized from 1 μg of total RNA, using the High Capacity cDNA Archive Kit (Applied Biosystems, Inc., Foster City, Calif.). […] Transcript levels were quantified and expressed relative to those of the human transferrin receptor (TFRC) as 2^-ΔCt.

MSK-Leuk1 cells [2] = assay: Quantitative real-time RT-PCR of transcript levels after E2 exposure, MSK-Leuk1 cells; settings: E2 1 nM
Description: For all the experiments that involved estradiol (E2) exposure, MSK-Leuk1 cells were cultured in phenol red-free and serum-free DermaLife K Medium (Lifeline Cell Technology, Walkersville, Md.). SCC cells were cultured in their respective media with no phenol red, supplemented with charcoal-stripped serum (Gibco, Carlsbad, Calif.). Cells were incubated for 48 h to remove endogenous estrogens and then plated at 70% confluence. After 24 h, the medium was replaced with either control medium containing vehicle (0.01% ethanol) or medium supplemented with 1 nM E2 (Sigma-Aldrich, St. Louis, Mo.). Cells were harvested after the appropriate treatment period and analyzed.
Quantitative real-time reverse transcription PCR. RNA was extracted from pelleted cultured cells using the RNeasy Mini kit (Qiagen, Valencia, Calif.) and its quality (18S and 28S RNA) was evaluated by gel electrophoresis. cDNA was synthesized from 1 μg of total RNA, using the High Capacity cDNA Archive Kit (Applied Biosystems, Inc., Foster City, Calif.). Three μl of the resulting cDNA were mixed with 12.5 μl of 2× TaqMan® Universal PCR master mix and 1.25 μL of 20× primer mix (Applied Biosystems) in a final reaction volume of 25 μL, according to the manufacturer's instructions. Reactions were performed in triplicate in an Applied Biosystems 7900HT Fast Real-Time PCR System using universal conditions. Transcript levels were quantified and expressed relative to those of the human transferrin receptor (TFRC) as 2^-ΔCt.

MSK-Leuk1 cells [3] = assay: Cell proliferation (total DNA, Fluorescent DNA Quantitation kit); settings: vector-expressing MSK-Leuk1 cells, E2 1 nM, 72 h, not statistically significant
Description: Cell proliferation. Fifty thousand cells/well were plated in 6-well plates. After the appropriate treatment, the DNA content of the cells, an indirect measure of proliferation, was determined using a Fluorescent DNA Quantitation kit (Bio-Rad Laboratories, Hercules, Calif.). In brief, cells were harvested, sonicated in 0.1× TEN assay buffer (Bio-Rad Laboratories) for 5 s, and incubated with a Hoechst dye mixture (BioRad Laboratories) for 1 h. Total DNA was measured using Fluoroscan Ascent FL (Thermo Fisher Scientific, Waltham, Mass.) at an excitation wavelength of 360 nm and an emission wavelength of 460 nm.

MSK-Leuk1 cells [4] = assay: Apoptosis assay (Guava Nexin, annexin V); settings: for decrease of apoptosis: E2 1 nM, 72 h
Description: Apoptosis assay. Apoptosis was assessed using the Guava Nexin® (Millipore Corp., Billerica, Mass.). Fifty thousand cells were plated per well in 6-well plates. After the appropriate treatment, floating cells were collected, combined with attached cells following trypsinization, and resuspended in DermaLife® K Medium (Lifeline Cell Technology, Walkersville, Md.) supplemented with 5% FBS. The cell suspension (100 μl) was incubated with 100 μl of Guava Nexin® Reagent for 20 min, according to the manufacturer's instructions. Two thousand cells were analyzed from each sample using the Guava EasyCyte™ system, and the resulting data were expressed as a percentage of apoptotic cells (annexin V positive cells/total number of cells counted).

| induction of CYP1B1 transcript levels over vehicle-treated controls (MSK-Leuk1 cells [2]; 24 h, P=0.0004) | time of peak induction of CYP1B1 transcripts (MSK-Leuk1 cells [2]; time course) | Compound | effect of treatment on motility (gap closure) (MSK-Leuk1 cells [1]) | levels of ERβ, CYP1B1 and COMT transcripts (HNSCC cells) | levels of COMT and ERβ transcripts post-treatment (MSK-Leuk1 cells [2]) | increase of cell proliferation (MSK-Leuk1 cells [3]) | decrease of apoptosis (MSK-Leuk1 cells [4]; CYP1B1 shRNA-expressing MSK-Leuk1 cells, P=0.015) | decrease of apoptosis (MSK-Leuk1 cells [4]; vector-expressing MSK-Leuk1 cells, P=0.030) | effect on E2-mediated decrease in apoptosis (MSK-Leuk1 cells [4]; MSK-Leuk1 cells, fulvestrant 1 μM added to E2 1 nM) |
| --- | --- | --- | --- | --- | --- | --- | --- | --- | --- |
| 2.3 fold | 6 h | C[C@]12CC[C@@H]3c4ccc(O)cc4CC[C@H]3[C@@H]1CC[C@@H]2O [E2, 17β-estradiol] | not affected | did not alter the level of any of the transcripts of interest | remained unaltered | 10% | 30.1% | 25.5% | – |
| – | – | C[C@]12CC[C@@H]3c4ccc(O)cc4C[C@@H](CCCCCCCCC[S+]([O-])CCCC(F)(F)C(F)(F)F)[C@H]3[C@@H]1CC[C@@H]2O (stereo partly drawn) [fulvestrant] | – | – | – | – | – | – | restored |

Source: patent US20130217594A1, “METHODS FOR SCREENING COMPOUNDS FOR CAPABILITY TO INHIBIT PREMALIGNANT SQUAMOUS EPITHELIAL CELL PROGRESSION TO A MALIGNANT STATE” (Institute for Cancer Research d/b/a The Research Center of …, priority 2010, published 2013)
